The values that follow come from patent US9856427B2, “Method to convert fermentation mixture into fuels” (The Regents of the University of California, priority 2011, dated 2018).

For the data set, the system named is Clostridium acetobutylicum. Nature of the data set: Toxicity study: growth inhibition and cell viability. It counts as cell-based. Conditions: up to 1:1 volume ratios of extractant to media. An excerpt: Growth inhibition and cell viability was examined in a study using up to 1:1 volume ratios of extractant to media.

In the case of `CCCC(=O)OCC(COC(=O)CCC)OC(=O)CCC` [glyceryl tributyrate], the “toxicity to Clostridium acetobutylicum (growth inhibition and cell viability)” value is recorded as “non-toxic”.
